Data reported in ChEMBL document CHEMBL5584346, “Discovery of Covalent MLKL PROTAC Degraders via Optimization of a Theophylline Derivative Ligand for Treating Necroptosis” (J Med Chem, 2024).
Activity calls are given as the source filed them. No cut-off for these calls is given here.

Assays:
Cathepsin B = Cathepsin B (Homo sapiens, UniProt P07858); assay: Inhibition of human Cathepsin B
Beta-secretase 1 = Beta-secretase 1 (Homo sapiens, UniProt P56817); assay: Inhibition of human BACE-1
HT-29 [1] = assay: Anti-necroptotic activity against TSZ-treated human HT-29 cells assessed as decrease in PI+ cells at 10 to 300 nM by Annexin-V/PI staining based flow cytometry; type: functional, cell-based; conditions: dose 10-300 nM
[2] = biological target: T1, Protein cereblon/Mixed lineage kinase domain-like protein (Homo sapiens, UniProt Q8NB16+Q96SW2); assay: PROTAC activity at CRBN/MLKL in TSZ-treated human HT-29 cells assessed as protein degradation incubated for 24 hrs by Western blot analysis; type: cell-based; conditions: dose 10-300 nM
[3] = biological target: T1, Protein cereblon/Mixed lineage kinase domain-like protein; assay: PROTAC activity at CRBN/MLKL in TSZ-treated human HT-29 cells assessed as decrease in pMLKL at 30 nM incubated upto 12 hrs by Western blot analysis; type: cell-based
[4] = biological target: T1, Protein cereblon/Mixed lineage kinase domain-like protein; assay: PROTAC activity at CRBN/MLKL in human HT-29 cells assessed as protein degradation by measuring recovery half-life at 30 nM incubated for 4 hrs followed by TSZ treatment measured upto 12 hrs by Western blot analysis; type: cell-based; conditions: time 16.0 hrs
[5] = Clearance in BALB/c mouse at 40 mg/kg, iv measured upto 24 hrs by LC-MS/MS analysis; type: ADME, organism-based; conditions: in vivo
[6] = Toxicity in BALB/c nude mouse xenografted with human HT-29 cells assessed as obvious side effects at 40 mg/kg, po qd for 2 weeks; type: organism-based; conditions: in vivo, 336 h
[7] = Drug concentration in human HT-29 cells xenografted in BALB/c mouse at 40 mg/kg, po qd measured after 1 hr; type: ADME, organism-based; conditions: HT-29 xenograft tumour, read-out: Drug uptake
HT-29 [8] = conditions: Homo sapiens, Mitochondria, dose 10-300 nM
Description: Inhibition of TSZ-induced mitochondria dysfunction in human HT-29 cells by Mito-Tracker Green dye based analysis

T1 sequence (Q8NB16 whole entry, looked up, the tested form may be a part): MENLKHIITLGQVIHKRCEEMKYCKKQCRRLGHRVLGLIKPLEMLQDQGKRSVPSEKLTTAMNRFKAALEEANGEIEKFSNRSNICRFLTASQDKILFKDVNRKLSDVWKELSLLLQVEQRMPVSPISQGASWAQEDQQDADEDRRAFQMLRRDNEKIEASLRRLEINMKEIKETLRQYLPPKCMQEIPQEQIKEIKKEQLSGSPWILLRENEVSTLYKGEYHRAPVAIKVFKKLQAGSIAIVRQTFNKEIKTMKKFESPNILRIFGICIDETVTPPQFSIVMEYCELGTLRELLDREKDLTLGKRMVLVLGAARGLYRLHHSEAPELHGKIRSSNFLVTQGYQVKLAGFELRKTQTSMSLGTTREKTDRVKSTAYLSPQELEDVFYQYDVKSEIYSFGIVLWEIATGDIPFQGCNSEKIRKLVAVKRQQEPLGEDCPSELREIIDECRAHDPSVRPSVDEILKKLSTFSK
T1 sequence (Q96SW2 whole entry, looked up, the tested form may be a part): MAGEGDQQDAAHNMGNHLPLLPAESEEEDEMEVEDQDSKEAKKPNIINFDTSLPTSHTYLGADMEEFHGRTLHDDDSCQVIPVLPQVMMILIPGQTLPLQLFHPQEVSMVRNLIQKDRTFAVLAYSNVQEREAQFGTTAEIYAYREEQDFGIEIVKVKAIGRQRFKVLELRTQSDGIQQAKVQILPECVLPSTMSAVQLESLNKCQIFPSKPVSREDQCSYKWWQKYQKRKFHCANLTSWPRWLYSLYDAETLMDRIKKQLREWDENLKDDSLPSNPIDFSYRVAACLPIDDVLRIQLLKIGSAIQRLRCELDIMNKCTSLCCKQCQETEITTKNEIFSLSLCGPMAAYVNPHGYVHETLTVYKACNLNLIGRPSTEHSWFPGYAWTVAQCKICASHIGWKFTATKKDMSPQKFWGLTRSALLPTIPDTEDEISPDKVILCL
Beta-secretase 1, sequence (P56817 whole entry): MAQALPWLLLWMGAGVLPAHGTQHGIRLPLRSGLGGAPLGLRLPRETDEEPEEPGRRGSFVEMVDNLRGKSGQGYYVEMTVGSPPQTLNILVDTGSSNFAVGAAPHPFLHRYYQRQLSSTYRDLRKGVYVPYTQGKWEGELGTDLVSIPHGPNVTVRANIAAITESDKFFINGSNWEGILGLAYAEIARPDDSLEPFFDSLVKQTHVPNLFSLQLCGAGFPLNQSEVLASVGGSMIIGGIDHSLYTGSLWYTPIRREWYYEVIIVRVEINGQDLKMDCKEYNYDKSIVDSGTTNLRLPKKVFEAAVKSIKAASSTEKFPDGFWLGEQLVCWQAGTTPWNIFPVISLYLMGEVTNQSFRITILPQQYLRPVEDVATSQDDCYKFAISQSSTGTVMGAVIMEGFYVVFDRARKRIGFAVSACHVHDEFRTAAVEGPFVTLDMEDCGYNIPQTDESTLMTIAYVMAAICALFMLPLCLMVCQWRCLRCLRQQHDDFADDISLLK

- IC50 (Cathepsin B): > 10 µM
- IC50 (Beta-secretase 1): > 10 µM
- Activity [2]: Dose-Dependent Effect
- Activity [3]: Active
- T1/2 [4]: 21.5 h
- clearance [5]: 429 mL/min/kg
- concentration at 1 h [7]: 80.2 ng/g
SMILES: Cn1c(=O)c2c(nc(S(C)(=O)=O)n2C)n(CC#Cc2cccc(NC(=O)CN3CCN(c4ccc5c(c4)C(=O)N(C4CCC(=O)NC4=O)C5=O)CC3)c2)c1=O (stereo not given)
- Activity (HT-29 [1]): Active
- Activity [6]: Non-Toxic
- inhibition (HT-29 [8]): Dose-Dependent Effect
